Our source for the Papp, IC50 and EC50 values is patent US10294229B2, “Heteroaryl substituted aminopyridine compounds” (BRISTOL-MYERS SQUIBB COMPANY, priority 2015, dated 2019).

Series [1] in a line: Caco-2 Permeability Assay. It is filed as in vitro ADME. The conditions noted are these: human, Caco-2, test compound 3 μM. As to the method: Caco-2 Permeability Assay
Thirteen to 27 days prior to assay, Caco-2 cells were seeded onto collagen-coated polycarbonate filter membranes in 24-well transwell plates at a density of 1.45×10^5 cells/cm^2, approximately 4.8×10^4 cells per well. The cells were grown in a culture medium consisting of DMEM supplemented with 10% fetal bovine serum, 10 mM HEPES, 1% nonessential amino acids, 2 mM L-glutamine, 100 U/mL penicillin-G, and 100 μg/mL streptomycin. The culture medium was replaced every 3 days and the cells were maintained at 37° C. in a 95% relative humidity and 5% CO2 atmosphere. The cells were evaluated for tight junction formation just prior to assay. The test compound was solubilized to 10 mM in 100% DMSO and diluted to 3 μM in assay buffer. Permeability studies were initiated by adding 200 μL assay buffer plus/minus compound to the apical transwell compartment and 600 μL assay buffer plus/minus compound to the basolateral compartment of the 24-well transwell low-binding cluster plate. For apical-to-basolateral (A to B) permeability (absorptive direction), buffer containing compound was placed in the apical compartment (donor wells), while buffer alone was placed in the corresponding basolateral compartments (receiver wells). For basolateral-to-apical (B to A) permeability (secretive direction), buffer containing compound was placed in the basolateral compartment (donor wells), while buffer alone was placed in the corresponding apical compartments (receiver wells). Transwells were then incubated for 2 hours at 37° C. in a 95% relative humidity and 5% CO2 atmosphere with gentle agitation. Following incubation, 100 μL was removed from each apical and basolateral compartment and transferred to 96-well low binding plates that had been previously loaded with 100 μL/well of acetonitrile containing 250 nM propranolol, 250 nM diclofenac, and 500 nM tolbutamide as internal standards. The samples were subsequently analyzed by LC-MS/MS to determine concentrations of compound.
In general terms: Passage across Caco-2 layers is used to estimate intestinal permeability.

The target of the next series is IRAK4 (Homo sapiens (Human), UniProt Q9NWZ3). In words: IRAK4 Inhibition Assay. The settings on record: ATP 500 μM; IRAK4 0.6 nM. It is filed as biochemical. Put shortly:
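Enzyme 0.6 nM, ATP 500 μM, FL-peptide 1.5 μM, DMSO 1.6%; HEPES pH 7.2/MgCl2/Brij 35/DTT buffer. RT, 60 min, EDTA stop. Mobility-shift product/substrate ratio; % inhib vs no-enzyme and vehicle controls.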

The test system of series [2] is Human whole blood stimulated with a TLR2 agonist (lipoteichoic acid), IL-6 levels. In words: IRAK4 Whole Blood Assay. Format: cell-based. The settings on record: Homo sapiens, lipoteichoic acid 10 μg/mL. The essentials: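 ACD-A-anticoagulated human whole blood was preincubated with compounds for 60 min at 37 °C under 5% CO2. It was then stimulated with 10 μg/mL lipoteichoic acid (final) in RPMI for 5 h. IL-6 in plasma supernatants was measured by flow cytometry bead assay.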

Chain of IRAK4 (Q9NWZ3 whole entry, species assumed): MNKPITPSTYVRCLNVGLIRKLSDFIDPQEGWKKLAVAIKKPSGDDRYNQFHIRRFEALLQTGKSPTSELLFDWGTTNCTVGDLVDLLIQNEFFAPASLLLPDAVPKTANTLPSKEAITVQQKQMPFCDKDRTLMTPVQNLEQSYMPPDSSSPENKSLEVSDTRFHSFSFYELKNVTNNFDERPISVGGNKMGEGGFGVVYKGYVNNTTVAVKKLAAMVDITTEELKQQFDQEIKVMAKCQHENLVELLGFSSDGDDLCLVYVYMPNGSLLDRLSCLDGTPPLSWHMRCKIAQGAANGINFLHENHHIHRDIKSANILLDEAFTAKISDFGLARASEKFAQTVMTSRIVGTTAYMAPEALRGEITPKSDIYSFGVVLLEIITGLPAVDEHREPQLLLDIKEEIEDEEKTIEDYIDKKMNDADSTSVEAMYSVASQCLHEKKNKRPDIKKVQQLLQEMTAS

In the case of `CC(C)Nc1cc(-n2ncc3cc(C#N)cnc32)ncc1-c1cn([C@@H]2CCCC[C@@]2(C)O)nn1` (relative stereo) [Example 64, 1-(5-(1-((1R,2R)-2-hydroxy-2-methylcyclohexyl)-1H-1,2,3-triazol-4-yl)-4-(isopropylamino)pyridin-2-yl)-1H-pyrazolo[3,4-b]pyridine-5-carbonitrile], the Papp (in general, a coefficient for how fast a substance crosses the barrier) at 2 h, 3 µM in series [1] turned out to be 14.8 ×10⁻⁶ cm/s. Also, the concentration for half-maximal inhibition (IC50) – broadly, the concentration at which inhibition is half-maximal – at IRAK4 is 5 nM.

As for `N#Cc1cnc2c(cnn2-c2cc(NC3CC3)c(-c3cn([C@@H]4CNCC[C@H]4O)nn3)cn2)c1` (relative stereo) [Example 207, 1-(4-(cyclopropylamino)-5-(1-((trans)-4-hydroxypiperidin-3-yl)-1H-1,2,3-triazol-4-yl)pyridin-2-yl)-1H-pyrazolo[3,4-b]pyridine-5-carbonitrile], the apparent permeability (Papp) at 2 h, 3 µM in series [1] was < 1.5 ×10⁻⁶ cm/s. Further, a half-maximal response in series [2] (EC50) required 1330 nM.

Consider `COC(=O)N1CC[C@@H](n2cc(-c3cnc(-n4ncc5cc(C#N)cnc54)cc3NC3CC3)nn2)[C@](C)(O)C1` (relative stereo) [Example 208, (trans)-methyl 4-(4-(6-(5-cyano-1H-pyrazolo[3,4-b]pyridin-1-yl)-4-(cyclopropylamino)pyridin-3-yl)-1H-1,2,3-triazol-1-yl)-3-hydroxy-3-methylpiperidine-1-carboxylate], for which the Papp at 2 h, 3 µM in series [1] worked out at 2.6 ×10⁻⁶ cm/s. For the same compound, the midpoint of the response in series [2], the EC50, lay at 1510 nM. For the same compound, at IRAK4, the IC50 came to 6 nM.

Take `CC(C)Nc1cc(-n2ncc3cc(C#N)cnc32)ncc1-c1cn([C@@H]2CCNC[C@@H]2F)nn1` (relative stereo) [Example 209, 1-(5-(1-((cis)-3-fluoropiperidin-4-yl)-1H-1,2,3-triazol-4-yl)-4-(isopropylamino)pyridin-2-yl)-1H-pyrazolo[3,4-b]pyridine-5-carbonitrile]: the Papp at 2 h, 3 µM in series [1] came out at 2.4 ×10⁻⁶ cm/s. For the same compound, a half-maximal response in series [2] (EC50) required 490 nM.

In turn, `COC(=O)NCC1CC(c2cnc(-n3ncc4cc(C#N)cnc43)cc2NC(C)C)=NO1` (single isomer, unassigned) [Example 436, Methyl ((3-(6-(5-cyano-1H-pyrazolo[3,4-b]pyridin-1-yl)-4-(isopropylamino)pyridin-3-yl)-4,5-dihydroisoxazol-5-yl)methyl)carbamate] showed a Papp at 2 h, 3 µM in series [1] of 31.9 ×10⁻⁶ cm/s. Also, a half-maximal response in series [2] (EC50) required 290 nM.

For `CCCn1cc(-c2cnc(-n3cnc4cc(C#N)cnc43)cc2NC(C)C)nn1` [Example 40, 3-(4-(isopropylamino)-5-(1-propyl-1H-1,2,3-triazol-4-yl)pyridin-2-yl)-3H-imidazo[4,5-b]pyridine-6-carbonitrile], the Papp at 2 h, 3 µM in series [1] amounted to 27.8 ×10⁻⁶ cm/s. In addition, the IC50 at IRAK4 worked out at 3 nM.

The compound `CC(C)Nc1cc(-n2cnc3cc(C#N)cnc32)ncc1-c1cn(CCC(F)(F)F)nn1` [Example 42, 3-(4-(isopropylamino)-5-(1-(3,3,3-trifluoropropyl)-1H-1,2,3-triazol-4-yl)pyridin-2-yl)-3H-imidazo[4,5-b]pyridine-6-carbonitrile] returned a Papp at 2 h, 3 µM in series [1] of 5.7 ×10⁻⁶ cm/s. For the same compound, the IC50 on IRAK4 was found to be 5 nM.

In series [1], `CCCn1cc(-c2cnc(-n3cnc4cc(C#N)cnc43)cc2Nc2cnn(CC)c2)nn1` [Example 59] had a Papp at 2 h, 3 µM of 20 ×10⁻⁶ cm/s.

In series [1], `CC(C)Nc1cc(-n2ncc3cc(C#N)cnc32)ncc1-c1cn(C[C@@H](C)O)nn1` [Example 66, (R)-1-(5-(1-(2-hydroxypropyl)-1H-1,2,3-triazol-4-yl)-4-(isopropylamino)pyridin-2-yl)-1H-pyrazolo[3,4-b]pyridine-5-carbonitrile] yielded a Papp at 2 h, 3 µM of 5.9 ×10⁻⁶ cm/s. For the same compound, on IRAK4, the IC50 was found to be 16 nM.

With `CC(C)Nc1cc(-n2ncc3cc(C#N)cnc32)ncc1-c1cn(C2CN(CC(F)F)C2)nn1` [Example 153], the Papp at 2 h, 3 µM in series [1] stood at 17.9 ×10⁻⁶ cm/s. Also, a half-maximal response in series [2] (EC50) required 270 nM.

As for `CC(C)Nc1cc(-n2ncc3cc(C#N)cnc32)ncc1-c1cn([C@H]2CCNC[C@H]2O)nn1` [Example 177, 1-(5-(1-((3R,4S)-3-hydroxypiperidin-4-yl)-1H-1,2,3-triazol-4-yl)-4-(isopropylamino)pyridin-2-yl)-1H-pyrazolo[3,4-b]pyridine-5-carbonitrile], in series [1], the apparent permeability coefficient (Papp) at 2 h, 3 µM was < 1.5 ×10⁻⁶ cm/s. The IC50 on IRAK4 stood at 13 nM.

In series [1], `CCCc1cn(-c2cnc(-n3cnc4cc(C#N)cnc43)cc2NC(C)C)nn1` [Example 278, 3-(4-(isopropylamino)-5-(4-propyl-1H-1,2,3-triazol-1-yl)pyridin-2-yl)-3H-imidazo[4,5-b]pyridine-6-carbonitrile] came in with a Papp at 2 h, 3 µM of 23.7 ×10⁻⁶ cm/s. In addition, the IC50 at IRAK4 stood at 15 nM.

For the compound `CCNC1CCC(c2cn(-c3cnc(-n4ncc5cc(C#N)cnc54)cc3NC(C)C)nn2)CC1` (centres unmarked) [Example 356, 1-(5-(4-((1s,4s)-4-(ethylamino)cyclohexyl)-1H-1,2,3-triazol-1-yl)-4-(isopropylamino)pyridin-2-yl)-1H-pyrazolo[3,4-b]pyridine-5-carbonitrile], the Papp at 2 h, 3 µM in series [1] was < 1.5 ×10⁻⁶ cm/s. Besides, the EC50 (in general, the midpoint of the concentration-response curve) in series [2] worked out at 270 nM.

For `CC(C)(O)CCc1cn(-c2cnc(-n3ncc4cc(C#N)cnc43)cc2NC2COC2)nn1` [Example 359, 1-(5-(4-(3-hydroxy-3-methylbutyl)-1H-1,2,3-triazol-1-yl)-4-(oxetan-3-ylamino)pyridin-2-yl)-1H-pyrazolo[3,4-b]pyridine-5-carbonitrile], the Papp at 2 h, 3 µM in series [1] is < 1.5 ×10⁻⁶ cm/s. In series [2], this compound displayed an EC50 of 220 nM.

In the case of `CC(C)Nc1cc(-n2ncc3cc(C#N)cnc32)ncc1-n1cc(C2CCN(C(=O)CC(C)(C)O)CC2)nn1` [Example 360, 1-(5-(4-(1-(3-hydroxy-3-methylbutanoyl)piperidin-4-yl)-1H-1,2,3-triazol-1-yl)-4-(isopropylamino)pyridin-2-yl)-1H-pyrazolo[3,4-b]pyridine-5-carbonitrile], the apparent permeability coefficient (Papp) at 2 h, 3 µM in series [1] came to 3.6 ×10⁻⁶ cm/s. In series [2], this compound registered an EC50 of 310 nM.

`CC(C)(O)CCc1cn(-c2cnc(-n3ncc4cc(C#N)cnc43)cc2NC2CCC(F)CC2)nn1` (centres unmarked) [Example 374, 1-(4-(((1r,4r)-4-fluorocyclohexyl)amino)-5-(4-(3-hydroxy-3-methylbutyl)-1H-1,2,3-triazol-1-yl)pyridin-2-yl)-1H-pyrazolo[3,4-b]pyridine-5-carbonitrile] came in with a Papp at 2 h, 3 µM in series [1] of 3.2 ×10⁻⁶ cm/s. This compound came in with an EC50 in series [2] of 380 nM.

`CC(=O)NC1CCC(c2cc(-c3cnc(-n4ncc5cc(C#N)cnc54)cc3NC(C)C)on2)CC1` (centres unmarked) [Example 410, N-((1s,4s)-4-(5-(6-(5-cyano-1H-pyrazolo[3,4-b]pyridin-1-yl)-4-(isopropylamino)pyridin-3-yl)isoxazol-3-yl)cyclohexyl)acetamide] yielded a Papp at 2 h, 3 µM in series [1] of 14.8 ×10⁻⁶ cm/s. In series [2], this compound registered an EC50 of 300 nM.

In turn, `COC(=O)NC1CCC(c2cc(-c3cnc(-n4ncc5cc(C#N)cnc54)cc3NC(C)C)on2)CC1` (centres unmarked) [Example 411, methyl ((1s,4s)-4-(5-(6-(5-cyano-1H-pyrazolo[3,4-b]pyridin-1-yl)-4-(isopropylamino)pyridin-3-yl)isoxazol-3-yl)cyclohexyl)carbamate] gave an apparent permeability (Papp) at 2 h, 3 µM in series [1] of 26.9 ×10⁻⁶ cm/s. Moreover, the EC50 in series [2] worked out at 430 nM.

Compound `CC(C)Nc1cc(-n2ncc3cc(C#N)cnc32)ncc1-c1nnc(N[C@H]2CC[C@H](N)CC2)o1` [Example 434, 1-(5-(5-(((1R,4R)-4-aminocyclohexyl)amino)-1,3,4-oxadiazol-2-yl)-4-(isopropylamino)pyridin-2-yl)-1H-pyrazolo[3,4-b]pyridine-5-carbonitrile] gave an EC50 in series [2] of 330 nM. The IC50 on IRAK4 stood at 4 nM.

In series [2], `CC(C)Nc1cc(-n2ncc3cc(C#N)cnc32)ncc1C1=NOC(CCC(C)(C)O)C1` (centres unmarked) [Example 437, 1-(5-(5-(3-hydroxy-3-methylbutyl)-4,5-dihydroisoxazol-3-yl)-4-(isopropylamino)pyridin-2-yl)-1H-pyrazolo[3,4-b]pyridine-5-carbonitrile] showed an EC50 of 210 nM. In addition, the IC50 on IRAK4 was 2 nM.

Consider `CC(C)Nc1cc(-n2ncc3cc(C#N)cnc32)ncc1-c1cc(CC(C)(C)O)on1` [Example 438, 1-(5-(5-(2-hydroxy-2-methylpropyl)isoxazol-3-yl)-4-(isopropylamino)pyridin-2-yl)-1H-pyrazolo[3,4-b]pyridine-5-carbonitrile], for which the Papp at 2 h, 3 µM in series [1] turned out to be 27.3 ×10⁻⁶ cm/s. Besides, the EC50 in series [2] came to 230 nM.

For `CC(C)(O)CCC1CC(c2cnc(-n3ncc4cc(C#N)cnc43)cc2NCC(F)F)=NO1` (centres unmarked) [Example 442, 1-(4-((2,2-difluoroethyl)amino)-5-(5-(3-hydroxy-3-methylbutyl)-4,5-dihydroisoxazol-3-yl)pyridin-2-yl)-1H-pyrazolo[3,4-b]pyridine-5-carbonitrile], the EC50 in series [2] came out at 410 nM. The IC50 on IRAK4 was determined as 4 nM.
